Experimental data: patent US20260138970A1, “MODULATORS OF THE CALCIUM SIGNALING CASCADE” (FONDAZIONE TELETHON ETS, priority 2022, published 2026)

Tests used:
ENaC = assay: Short-circuit current recordings on human cultured bronchial epithelia, ENaC function; type: cell-based; conditions: apical addition; ARN7149 10 μM, ARN11391 20 μM, ARN4550 20 μM, UTP 10 nM; FIG. 9
Text: In a further experimental setting, snapwell supports (cc3801, Corning) carrying differentiated bronchial epithelia generated in vitro were mounted in a vertical chamber resembling an Ussing system with internal fluid circulation (EM-CSYS-8, Physiologic Instruments, San Diego, CA, USA). The apical and basolateral hemichambers were filled with a solution containing (in mM): 126 NaCl, 0.38 KH2PO4, 2.13 K2HPO4, 1 MgSO4, 1 CaCl2), 24 NaHCO3, and 10 glucose. Both sides were continuously bubbled with a gas mixture containing 5% CO2 and 95% air. The temperature of the solution was kept at 37° C. throughout the experiment.
During recordings, the following molecules (in addition to ARN7149, ARN11391, and ARN4550) were added in the apical solution: elastase (SE2093002, Serva); UTP (U6625, Merck); amiloride (A7410, Merck). Transepithelial voltage was short-circuited with a voltage-clamp (VCC MC8, Physiologic Instruments, San Diego, CA, USA) connected to the apical and basolateral chambers via Ag—AgCl electrodes and agar bridges (2% agar in 1 M KCl). The offset between voltage electrodes and the fluid resistance were cancelled before experiments. The resulting short-circuited current from each channel was recorded on a personal computer with the Acquire & Analize 2.3 software (Physiologic Instruments, San Diego, CA, USA).

CCK1 receptor = target: T1, CCK1 receptor (Homo sapiens, UniProt P32238); assay: Fluo-4 Ca2+ assay in Chem-1 cells expressing CCK1 receptor; type: cell-based; conditions: CCK8s 0.25 nM; vs vehicle (DMSO); FIG. 10
T1 construct: host or cells: Chem-1 cells
T1 sequence (P32238 1-428): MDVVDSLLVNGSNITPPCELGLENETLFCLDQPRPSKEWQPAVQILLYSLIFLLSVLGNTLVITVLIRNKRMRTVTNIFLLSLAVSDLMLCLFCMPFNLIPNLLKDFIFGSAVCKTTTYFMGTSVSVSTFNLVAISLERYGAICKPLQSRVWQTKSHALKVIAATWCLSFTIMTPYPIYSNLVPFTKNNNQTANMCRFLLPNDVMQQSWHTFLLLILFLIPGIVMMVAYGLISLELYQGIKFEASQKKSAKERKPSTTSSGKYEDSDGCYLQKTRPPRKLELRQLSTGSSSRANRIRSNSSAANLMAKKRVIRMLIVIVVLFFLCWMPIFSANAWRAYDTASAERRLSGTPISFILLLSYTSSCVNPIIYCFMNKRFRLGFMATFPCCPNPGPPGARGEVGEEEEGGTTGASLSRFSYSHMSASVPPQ
Method: Chem-1 cells expressing the CCK1 receptor (HTS184RTA, Merck) were cultured in Dulbecco's MEM/F12 (ECM0090L, EuroClone) with 10% fetal bovine serum, 2 mM L-glutamine, 100 U/ml penicillin and 100 μg/ml streptomycin.
In a further experimental setting, experiments were performed using as above the FLUOstar Omega (BMG Labtech, Offenburg, Germany) microplate reader equipped with syringe pumps and optical excitation/emission filters optimized for yellow fluorescent protein (YFP) fluorescence (ET500/20× and ET535/30m, respectively; Chroma Technology Corporation). FRT and Chem-1 cells were cultured until confluence in 96-well microplates (cc3603, Corning). Cells were washed 2 times with PBS (150 μl/wash) and then loaded for 1 h at 37° C. with 5 μM Fluo-4/AM (Thermo Fisher Scientific; catalog number: F23917) in PBS containing 10 mM glucose, 0.5 mM sulfinpyrazone, and 1% fetal bovine serum. […] Fluo-4 fluorescence (500 nm excitation, 535 nm emission) was detected every 200 ms for 16-40 s. Two seconds after the start of fluorescence recording, the reader automatically injected 165 μl of a modified PBS containing 136 mM KCl instead of NaCl. […] The Fluo-4 fluorescence increase was quantified using a procedure compiled in Microsoft Excel after background subtraction and normalization for the initial value measured before UTP or CCK8s addition.

[1] = tested on: protease-activated and bradykinin receptors; conditions: protease-activated and bradykinin receptor agonists; cited from earlier work
R269W ITPR1 = target: T2, R269W ITPR1 (Homo sapiens, UniProt Q14643, R269W); assay: IP3 uncaging assay, HEK293 cells expressing R269W-ITPR1; type: cell-based; conditions: compound 10 μM; tetracycline-treated; FIG. 6D
T2 construct: expressed in transfected cells
T2 sequence (Q14643 whole entry R269W): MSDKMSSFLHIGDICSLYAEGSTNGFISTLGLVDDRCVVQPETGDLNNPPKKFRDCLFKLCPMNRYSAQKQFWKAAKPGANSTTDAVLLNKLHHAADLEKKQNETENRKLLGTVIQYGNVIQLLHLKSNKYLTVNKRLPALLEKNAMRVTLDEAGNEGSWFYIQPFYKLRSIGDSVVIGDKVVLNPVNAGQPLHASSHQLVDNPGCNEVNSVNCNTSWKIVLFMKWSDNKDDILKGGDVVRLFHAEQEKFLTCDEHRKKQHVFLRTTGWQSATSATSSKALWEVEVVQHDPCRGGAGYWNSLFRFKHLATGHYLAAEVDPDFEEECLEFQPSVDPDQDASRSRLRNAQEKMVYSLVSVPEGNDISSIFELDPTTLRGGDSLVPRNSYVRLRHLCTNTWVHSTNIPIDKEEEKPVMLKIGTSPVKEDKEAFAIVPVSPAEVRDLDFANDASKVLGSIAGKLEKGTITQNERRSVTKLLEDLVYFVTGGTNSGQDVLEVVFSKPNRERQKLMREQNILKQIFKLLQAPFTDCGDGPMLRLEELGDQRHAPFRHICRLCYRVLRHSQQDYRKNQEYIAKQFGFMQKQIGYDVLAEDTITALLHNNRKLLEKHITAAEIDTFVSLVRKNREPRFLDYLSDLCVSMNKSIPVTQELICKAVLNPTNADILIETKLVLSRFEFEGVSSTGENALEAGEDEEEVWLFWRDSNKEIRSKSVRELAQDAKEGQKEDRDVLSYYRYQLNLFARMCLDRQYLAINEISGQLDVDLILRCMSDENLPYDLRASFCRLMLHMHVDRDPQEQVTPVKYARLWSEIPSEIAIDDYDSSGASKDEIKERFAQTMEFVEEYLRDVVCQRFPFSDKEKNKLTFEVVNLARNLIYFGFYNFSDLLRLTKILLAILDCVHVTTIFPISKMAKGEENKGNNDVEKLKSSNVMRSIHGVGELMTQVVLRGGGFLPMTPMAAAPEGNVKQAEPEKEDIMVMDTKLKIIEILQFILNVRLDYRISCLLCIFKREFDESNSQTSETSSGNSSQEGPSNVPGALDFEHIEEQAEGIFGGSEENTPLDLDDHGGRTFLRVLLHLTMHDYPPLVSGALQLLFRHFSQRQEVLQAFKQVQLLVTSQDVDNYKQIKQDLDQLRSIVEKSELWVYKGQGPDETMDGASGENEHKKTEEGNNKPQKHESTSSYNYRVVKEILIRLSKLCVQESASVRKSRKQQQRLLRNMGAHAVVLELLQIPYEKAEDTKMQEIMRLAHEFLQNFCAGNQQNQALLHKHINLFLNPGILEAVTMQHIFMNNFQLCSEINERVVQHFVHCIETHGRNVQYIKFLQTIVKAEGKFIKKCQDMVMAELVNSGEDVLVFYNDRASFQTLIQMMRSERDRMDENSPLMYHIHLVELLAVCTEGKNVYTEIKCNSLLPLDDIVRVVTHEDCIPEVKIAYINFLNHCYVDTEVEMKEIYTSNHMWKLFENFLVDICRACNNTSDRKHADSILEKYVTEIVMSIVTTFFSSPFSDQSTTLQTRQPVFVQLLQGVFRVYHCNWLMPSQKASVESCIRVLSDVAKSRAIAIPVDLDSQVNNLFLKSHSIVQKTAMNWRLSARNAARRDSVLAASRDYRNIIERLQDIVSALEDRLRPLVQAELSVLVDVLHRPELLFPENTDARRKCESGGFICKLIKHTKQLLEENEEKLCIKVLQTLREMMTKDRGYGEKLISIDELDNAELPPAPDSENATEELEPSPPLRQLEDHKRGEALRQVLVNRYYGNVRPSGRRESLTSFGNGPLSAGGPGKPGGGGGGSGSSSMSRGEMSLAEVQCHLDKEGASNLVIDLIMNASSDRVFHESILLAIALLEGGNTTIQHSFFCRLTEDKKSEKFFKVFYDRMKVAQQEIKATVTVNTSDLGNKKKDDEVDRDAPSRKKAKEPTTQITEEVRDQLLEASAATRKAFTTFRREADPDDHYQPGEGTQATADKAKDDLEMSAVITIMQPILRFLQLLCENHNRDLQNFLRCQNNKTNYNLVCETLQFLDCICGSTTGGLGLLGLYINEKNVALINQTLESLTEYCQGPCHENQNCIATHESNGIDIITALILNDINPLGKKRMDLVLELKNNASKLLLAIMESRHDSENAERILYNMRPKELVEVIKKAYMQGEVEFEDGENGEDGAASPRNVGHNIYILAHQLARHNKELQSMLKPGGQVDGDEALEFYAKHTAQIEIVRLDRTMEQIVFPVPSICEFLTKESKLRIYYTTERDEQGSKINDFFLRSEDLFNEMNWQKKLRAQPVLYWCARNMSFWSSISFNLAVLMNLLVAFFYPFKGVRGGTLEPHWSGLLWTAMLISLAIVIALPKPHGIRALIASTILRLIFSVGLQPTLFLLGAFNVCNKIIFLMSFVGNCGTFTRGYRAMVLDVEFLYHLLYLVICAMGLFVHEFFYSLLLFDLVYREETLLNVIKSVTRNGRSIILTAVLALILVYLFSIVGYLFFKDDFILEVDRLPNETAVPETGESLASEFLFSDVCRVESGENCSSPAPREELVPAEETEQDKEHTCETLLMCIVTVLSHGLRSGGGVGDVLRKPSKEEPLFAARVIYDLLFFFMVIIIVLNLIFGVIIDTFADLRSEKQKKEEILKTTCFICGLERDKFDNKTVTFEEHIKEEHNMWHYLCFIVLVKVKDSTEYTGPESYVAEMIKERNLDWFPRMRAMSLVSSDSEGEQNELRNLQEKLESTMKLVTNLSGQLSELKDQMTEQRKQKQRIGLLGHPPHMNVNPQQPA
Method: HEK293 cells stably transfected with tetracycline-inducible expression of wild type or mutant (R269W or T267M) ITPR1, kindly provided by Prof. S. R. Wayne Chen (University of Calgary; ref. 14), were cultured in a mixture of Dulbecco's Modified Eagle Medium (DMEM, high glucose version) and Ham's F12 (1:1) and supplemented with 10% fetal bovine serum, 2 mM L-glutamine, 100 U/ml penicillin and 100 μg/ml streptomycin. Cells were selected with 0.5 mg/ml hygromycin B and induced with 1 μg/ml tetracycline.
FRT and HEK293 cells were cultured in μ-Plate96 microplates (Ibidi) at subconfluent condition. Cells were washed 2 times with PBS (150 μl/wash) and then loaded for 45 min at 37° C. with 1 μM ci-IP3/PM (Tocris; catalog number: 6210/10U) and 5 μM Fluo-4/AM (Thermo Fisher Scientific) in PBS containing 10 mM glucose, 0.5 mM sulfinpyrazone and 1% fetal bovine serum. After 45 min, cells were further incubated for 1 h at 37° C. with a fresh PBS solution containing Fluo-4/AM, glucose, sulfinpyrazone, serum, but no ci-IP3/PM. […] Analysis was performed with MetaFluor software, by quantifying Fluo-4 fluorescence in manually selected single cell region of interest (ROI). […] After background subtraction, fluorescence traces were normalized for the initial value.

SMILES: CCc1cc(-c2cc(NCCCOc3ccccc3C)nc(N)n2)n(C)n1 [ARN7149, 6-(3-Ethyl-1-methyl-1H-pyrazol-5-yl)-N^4-(3-(o-tolyloxy)propyl)pyrimidine-2,4-diamine]
- ENaC current decay (ENaC inhibition), short-circuit current (ENaC): caused ENaC current decay
- effect on CCK8s-induced Ca2+ mobilization (CCK1 receptor): lack of activity
- effectiveness by agonist inducing Ca2+ mobilization (UTP vs other GPCR agonists) [1]: only effective when Ca^2+ mobilization is induced by UTP

SMILES: CCn1nc2c(c1C(=O)Nc1ccccc1OCC1CCCCO1)CCCC2 (stereo not drawn) [ARN11391, 2-Ethyl-N-[2-(tetrahydropyran-2-ylmethoxy)phenyl]-4,5,6,7-tetrahydroindazole-3-carboxamide]
- Ca2+ mobilization elicited by IP3 uncaging, R269W-ITPR1 (R269W ITPR1): significantly amplified

SMILES: OCc1ccccc1CN(Cc1ccnc(N2CCCC2)n1)c1ccc(F)cc1 [ARN4550, [2-[[4-Fluoro-N-[(2-pyrrolidin-1-ylpyrimidin-4-yl)methyl]anilino]methyl]phenyl]methanol]
- ENaC current decay (ENaC inhibition), short-circuit current (ENaC): caused ENaC current decay
- effect on CCK8s-induced Ca2+ mobilization (CCK1 receptor): significantly enhanced
